Patent US20240342292A1, “Compounds for the Degradation of EGFR Kinase” (BeiGene Switzerland GmbH, priority 2021, published 2024)
Where “and” joins values, the source holds several entries; their conditions need not be identical. Identical values can stand only once.

How the values were obtained:
Del19/T790M/C797S EGFR = test: EGFR degradation HTRF assay in H1975-clone #28 (DTC) cells; assay type: cell-based; settings: H1975 # 28 DTC (Del19/T790M/C797S), 16h treatment; for DC50: HTRF; for Dmax (%): maximum percentage of degradation
In short: (§1)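 Cells carrying only lentiviral mutant EGFR, since endogenous alleles were removed by CRISPR, received compounds on day 2 for 16 h. Final concentrations ran from 10 uM down in 5-fold steps over 8 doses. After lysis, EGFR levels were quantified by HTRF and DC50 derived by curve fitting.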

L858R/T790M/C797S EGFR = biological target: T1, L858R/T790M/C797S EGFR (Homo sapiens, UniProt P00533, C797S/L858R/T790M); test: EGFR degradation HTRF assay in H1975-clone #25 (LTC) cells; assay type: cell-based; settings: 16h treatment; for DC50: HTRF; for Dmax: NCI-H1975, H1975 # 25-LTC (L858R/T790M/C797S)
T1 construct: expressed in transfected cells; host or cells: H1975 clone #25 (lentiviral over-expression, endogenous EGFR knocked out by sgRNA)
T1 sequence (P00533 25-1210 T790M/C797S/L858R): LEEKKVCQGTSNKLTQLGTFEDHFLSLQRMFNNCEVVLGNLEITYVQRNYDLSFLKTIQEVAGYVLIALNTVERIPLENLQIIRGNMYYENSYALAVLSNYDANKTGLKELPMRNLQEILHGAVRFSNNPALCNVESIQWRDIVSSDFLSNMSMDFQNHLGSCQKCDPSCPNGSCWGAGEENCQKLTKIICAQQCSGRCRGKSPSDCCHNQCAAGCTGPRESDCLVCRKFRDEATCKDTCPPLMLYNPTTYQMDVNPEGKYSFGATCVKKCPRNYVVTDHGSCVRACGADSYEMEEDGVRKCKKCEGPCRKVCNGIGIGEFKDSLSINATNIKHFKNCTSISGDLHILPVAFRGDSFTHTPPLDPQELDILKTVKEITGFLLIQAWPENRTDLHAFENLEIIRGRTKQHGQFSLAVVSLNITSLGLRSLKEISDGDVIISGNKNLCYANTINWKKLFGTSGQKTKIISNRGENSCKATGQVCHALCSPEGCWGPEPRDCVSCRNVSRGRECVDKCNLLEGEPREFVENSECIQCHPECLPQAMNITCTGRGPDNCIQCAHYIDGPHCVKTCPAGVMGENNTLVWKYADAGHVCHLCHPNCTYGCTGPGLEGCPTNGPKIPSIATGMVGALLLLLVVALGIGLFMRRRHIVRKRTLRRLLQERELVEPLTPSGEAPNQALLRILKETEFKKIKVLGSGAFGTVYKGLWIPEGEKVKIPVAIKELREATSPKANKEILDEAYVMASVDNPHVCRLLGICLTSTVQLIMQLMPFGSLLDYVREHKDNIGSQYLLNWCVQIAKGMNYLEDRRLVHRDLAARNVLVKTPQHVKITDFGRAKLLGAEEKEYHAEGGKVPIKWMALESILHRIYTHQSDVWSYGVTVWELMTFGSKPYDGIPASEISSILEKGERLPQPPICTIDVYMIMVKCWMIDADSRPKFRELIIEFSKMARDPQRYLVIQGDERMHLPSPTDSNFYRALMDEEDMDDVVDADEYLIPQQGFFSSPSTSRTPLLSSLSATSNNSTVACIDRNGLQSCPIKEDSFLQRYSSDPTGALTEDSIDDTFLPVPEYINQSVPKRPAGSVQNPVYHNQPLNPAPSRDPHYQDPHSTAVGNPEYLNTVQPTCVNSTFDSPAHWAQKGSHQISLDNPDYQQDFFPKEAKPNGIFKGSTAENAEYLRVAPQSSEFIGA
In short: as §1

[1] = H1975 # 25-LTC (L858R/T790M/C797S)
[2] = maximum percentage of degradation

Row | SMILES | DC50 (Del19/T790M/C797S EGFR) | Dmax (%) (Del19/T790M/C797S EGFR) | DC50 (L858R/T790M/C797S EGFR; [1]) | Dmax (L858R/T790M/C797S EGFR; [2]) [%] | Dmax (%) (L858R/T790M/C797S EGFR; H1975 # 25-LTC (L858R/T790M/C797S), maximum percentage of degradation)
1 | Cc1cc2cc(n1)-c1cnn(C)c1OCCC[C@@H](C)CN1/C(=N/C2=O)Nc2ccc(C(=O)N(C)C3CCN(CCc4cc(F)c([C@H]5CCC(=O)NC5=O)c(F)c4)CC3(C)C)cc21 (stereo partly drawn) [Example 439, (R,E)-N—((S)-1-(4-((R)-2,6-dioxopiperidin-3-yl)-3,5-difluorophenethyl)-3,3-dimethylpiperidin-4-yl)-N,1^1,2^6,7-tetramethyl-3-oxo-5^2,5^3-dihydro-1^1H,5^1H-11-oxa-4-aza-5(2,1)-benzo[d]imidazola-2(2,4)-pyridina-1(4,5)-pyrazolacycloundecaphane-5^6-carboxamide] | 1.52 nM | 76.03% | 1.4 nM | 87.3 | –
2 | Cc1cc2cc(n1)-c1cnn(C)c1OCCC[C@@H](C)CN1/C(=N/C2=O)Nc2ccc(C(=O)N(C)C3CCN(CCc4cccc5c4C4(CC4)C(=O)N5C4CCC(=O)NC4=O)CC3)cc21 (stereo partly drawn) [Example 316, (7R,E)-N-(1-(2-(1′-(2,6-dioxopiperidin-3-yl)-2′-oxospiro[cyclopropane-1,3′-indolin]-4′-yl)ethyl)piperidin-4-yl)-N,1^1,2^6,7-tetramethyl-3-oxo-5^2,5′-dihydro-1^1H,5^1H-11-oxa-4-aza-5(2,1)-benzo[d]imidazola-2(2,4)-pyridina-1(4,5)-pyrazolacycloundecaphane-5^6-carboxamide] | 0.925 nM | 47.67% | 0.655 nM | 77.9 | –
3 | Cc1cc2cc(n1)-c1cnn(C)c1OCCC[C@@H](C)CN1/C(=N/C2=O)Nc2ccc(N3CCN([C@H]4CCN(c5cc(F)c([C@H]6CCC(=O)NC6=O)c(F)c5)C[C@@H]4F)CC3)cc21 (single isomer, unassigned) [Example 424] | 0.794 nM | 82.75% | 2.51 nM | 89.8 | –
4 | Cc1cc2cc(n1)-c1cnn(C)c1OCCC[C@@H](C)CN1/C(=N/C2=O)Nc2ccc(N(C)C3CN(C4CCN(c5cc(F)c([C@H]6CCC(=O)NC6=O)c(F)c5)CC4)C3)cc21 [Example 438, (R)-3-(2,6-difluoro-4-(4-(3-(methyl((R,E)-1^1,2^6,7-trimethyl-3-oxo-5^2,5^3-dihydro-1^1H,5^1H-11-oxa-4-aza-5(2,1)-benzo[d]imidazola-2(2,4)-pyridina-1(4,5)-pyrazolacycloundecaphane-5^6-yl)amino)azetidin-1-yl)piperidin-1-yl)phenyl)piperidine-2,6-dione] | 0.983 nM | 72.51% | 0.964 nM | 85.6 | –
5 | Cc1cc2cc(n1)-c1cnn(C)c1OCCC[C@@H](C)CN1/C(=N/C2=O)Nc2ccc(N3CCN(C4CCN(c5cc(F)c([C@H]6CCC(=O)NC6=O)c(F)c5)CC4)[C@@H](CO)C3)cc21 [Example 421, (R)-3-(2,6-difluoro-4-(4-((R)-2-(hydroxymethyl)-4-((R,E)-1^1,2^6,7-trimethyl-3-oxo-5^2,5^3-dihydro-1^1H,5^1H-11-oxa-4-aza-5(2,1)-benzo[d]imidazola-2(2,4)-pyridina-1(4,5)-pyrazolacycloundecaphane-5^6-yl)piperazin-1-yl)piperidin-1-yl)phenyl)piperidine-2,6-dione] | 0.639 nM | 84.08% | 0.604 nM | 87.5 | –
6 | Cc1cc2cc(n1)-c1cnn(C)c1OCCC[C@@H](C)CN1/C(=N/C2=O)Nc2ccc(C(=O)N3CC(NCCc4cc(F)c([C@H]5CCC(=O)NC5=O)c(F)c4)C3)cc21 [Example 305, (R)-3-(2,6-difluoro-4-(2-((1-((R,E)-1^1,2^6,7-trimethyl-3-oxo-5^2,5^3-dihydro-1^1H,5^1H-11-oxa-4-aza-5(2,1)-benzo[d]imidazola-2(2,4)-pyridina-1(4,5)-pyrazolacycloundecaphane-5^6-carbonyl)azetidin-3-yl)amino)ethyl)phenyl)piperidine-2,6-dione] | 0.668 nM | 80.65% | 0.861 nM | 90.6 | –
7 | Cc1cc2cc(n1)-c1cnn(C)c1OCCC[C@@H](C)CN1/C(=N/C2=O)Nc2ccc(C(=O)N(C)CCC3CCN(c4cc(F)c([C@H]5CCC(=O)NC5=O)c(F)c4)CC3)cc21 [Example 279, (R,E)-N-(2-(1-(4-((R)-2,6-dioxopiperidin-3-yl)-3,5-difluorophenyl)piperidin-4-yl)ethyl)-N,1^1,2^6,7-tetramethyl-3-oxo-5^2,5^3-dihydro-1^1H,5^1H-11-oxa-4-aza-5(2,1)-benzo[d]imidazola-2(2,4)-pyridina-1(4,5)-pyrazolacycloundecaphane-5^6-carboxamide] | 0.75 nM | 82.08% | 1.33 nM | 83 | –
8 | Cc1cc2cc(n1)-c1cnn(C)c1OCCC[C@@H](C)CN1/C(=N/C2=O)Nc2ccc(N3CCN(C4CCN(c5cnc([C@H]6CCC(=O)NC6=O)c(F)c5)CC4)CC3=O)cc21 (single isomer, unassigned) [Example 460] | 0.629 nM | 75.27% | 0.431 nM | 89.6 | –
9 | Cc1cc2cc(n1)-c1cnn(C)c1OCCC[C@@H](C)CN1/C(=N/C2=O)Nc2ccc(C(=O)N3CC[C@@H](N(C)CCc4cc(F)c([C@H]5CCC(=O)NC5=O)c(F)c4)C3)cc21 [Example 295, (R)-3-(2,6-difluoro-4-(2-(menthyl((R)-1-((R,E)-1^1,2^6,7-trimethyl-3-oxo-5^2,5^3-dihydro-1^1H,5^1H-11-oxa-4-aza-5(2,1)-benzo[d]imidazola-2(2,4)-pyridina-1(4,5)-pyrazolacycloundecaphane-5^6-carbonyl)pyrrolidin-3-yl)amino)ethyl)phenyl)piperidine-2,6-dione] | 0.313 nM | 78.39% | 0.478 nM | 89.5 | –
10 | Cc1cc2cc(n1)-c1cnn(C)c1OCCC[C@@H](C)CN1/C(=N/C2=O)Nc2cc(C)c(CN3CCN(CC4CN(c5cc(F)c([C@H]6CCC(=O)NC6=O)c(F)c5)C4)CC3)cc21 [Example 147, (R)-3-(2,6-difluoro-4-(3-((4-(((R,E)-1^1,2^6,5,7-tetramethyl-3-oxo-5^2,5′-dihydro-1^1H,5^1H-11-oxa-4-aza-5(2,1)-benzo[d]imidazola-2(2,4)-pyridina-(4,5)-pyrazolacycloundecaphane-5^6-yl)methyl)piperazin-1-yl)methyl)azetidin-1-yl)phenyl)piperidine-2,6-dione] | 2.41 nM | 69.47% | 1.83 nM | 81.4 | –
11 | Cc1cc2cc(n1)-c1cnn(C)c1OCCC[C@@H](C)CN1/C(=N/C2=O)Nc2ccc(C(=O)N[C@@H]3CCN(CCc4cc(F)c([C@H]5CCC(=O)NC5=O)c(F)c4)C[C@H]3F)cc21 [Example 345, (R,E)-N—((3R,4R)-1-(4-((R)-2,6-dioxopiperidin-3-yl)-3,5-difluorophenethyl)-3-fluoropiperidin-4-yl)-1^1,2^6,7-trimethyl-3-oxo-5^2,5^3-dihydro-1^1H,5^1H-11-oxa-4-aza-5(2,1)-benzo[d]imidazola-2(2,4)-pyridina-1(4,5)-pyrazolacycloundecaphane-5^6-carboxamide] | 0.662 nM and 0.7 nM | 74.46% and 74.5% | 0.634 nM and 0.6 nM | 92.5 | 92.5
12 | Cc1cc2cc(n1)-c1cnn(C)c1OCCC[C@@H](C)CN1/C(=N/C2=O)Nc2ccc(C(=O)N3CC[C@@H](NCCc4cc(F)c([C@H]5CCC(=O)NC5=O)c(F)c4)C3)cc21 [Example 296, (R)-3-(2,6-difluoro-4-(2-(((R)-1-((R,E)-1^1,2^6,7-trimethyl-3-oxo-5^2,5^3-dihydro-1^1H,5^1H-11-oxa-4-aza-5(2,1)-benzo[d]imidazola-2(2,4)-pyridina-1(4,5)-pyrazolacycloundecaphane-5′-carbonyl)pyrrolidin-3-yl)amino)ethyl)phenyl)piperidine-2,6-dione] | 0.842 nM | 51.36% | 0.707 nM | 84.8 | –
13 | Cc1cc2cc(n1)-c1cnn(C)c1OCCCCCN1/C(=N/C2=O)Nc2ccc(C(=O)N(C)C3CCN(CCc4cc(F)c([C@H]5CCC(=O)NC5=O)c(F)c4)CC3)cc21 [Example 238, (R,E)-N-(1-(4-(2,6-dioxopiperidin-3-yl)-3,5-difluorophenethyl)piperidin-4-yl)-N,1^1,2^6-trimethyl-3-oxo-5^2,5^3-dihydro-1^1H,5^1H-11-oxa-4-aza-5(2,1)-benzo[d]imidazola-2(2,4)-pyridina-1(4,5)-pyrazolacycloundecaphane-5^6-carboxamide] | 0.565 nM | 83.62% | 0.602 nM | 93.2 | –
14 | Cc1cc2cc(n1)-c1cnn(C)c1OCCC[C@@H](C)CN1/C(=N/C2=O)Nc2ccc(C(=O)N(C)[C@@H]3CCN(C4CN(c5cc(F)c([C@H]6CCC(=O)NC6=O)c(F)c5)C4)C[C@@H]3F)cc21 [Example 382, (R,E)-N—((3S,4R)-1-(1-(4-((R)-2,6-dioxopiperidin-3-yl)-3,5-difluorophenyl)azetidin-3-yl)-3-fluoropiperidin-4-yl)-N,1^1,2^6,7-tetramethyl-3-oxo-5^2,5^3-dihydro-1^1H,5^1H-11-oxa-4-aza-5(2,1)-benzo[d]imidazola-2(2,4)-pyridina-1(4,5)-pyrazolacycloundecaphane-5^5-carboxamide] | 0.617 nM | 86.76% | 0.233 nM | 87.5 | –
